The text below walks through data of EP3807270B1, “NOVEL HETEROARYL HETEROCYCLYL COMPOUNDS FOR THE TREATMENT OF AUTOIMMUNE DISEASE” (F. Hoffmann-La Roche AG, priority 2018, dated 2019).

One data set concerns the target T1, CYP2D6 (Homo sapiens, UniProt P10635).
T1 construct: tissue BD-Gentest 452117; host or cells: human liver microsomes
In words: CYP inhibition assay in human liver microsome. Type of data set: in vitro ADME. Conditions: human liver microsomes, probe dextromethorphan, 10µM test compound, dextromethorphan substrate, <0: not or weak inhibitor, read-out: CYP 2D6 inhibition %@10µM. As for the experimental part: This is a high throughput screening assay used for assessment of reversible inhibition of CYP2D6 activity of test compounds in human liver microsome (HLM) in early discovery stage. Table 4. Chemicals and materials used in the CYP inhibition assay
10 mM DMSO stock solutions of test compounds were diluted in DMSO to generate 2 mM intermediate stock solution. 250 nL of intermediate stock solution were transferred in duplicate into 3 separate 384 well microtitre plates (assay-ready plates). A mixture of HLM and each substrate was made up. 45 µL of HLM substrate mix was then transferred to each well of an assay ready plate and mixed. The negative (solvent) and positive control (standard inhibitor for CYP 2D6) were included in each assay ready plate. The assay ready plate was warmed to 37 °C in an incubator over 10 minutes. 5 µL pre-warmed NADPH regenerating system was added to each incubation well to start the reaction. Final incubation volume was 50 µL. The assay plate then was placed back in the 37 °C incubator. After 10-minute incubation, incubates were quenched by addition of 50 µL 100% acetonitrile containing internal standards (20 ng/mL D3-Dextrorphan). The supernatants were collected for RapidFire/MS/MS analysis.
RapidFire online solid phase extraction/sample injection system (Agilent) coupled with API4000 triple quadrupole mass spectrometer (AB Sciex) were used for sample analysis. The mobile phase composed of acetonitrile and water supplemented with 0.1% formic acid. A C4 solid phase extraction cartridge is used for sample separation. MS detection is achieved in positive ion MRM mode.
Peak areas for substrate, metabolite and internal standard are determined using the RapidFire integrator software (version 3.6.12009.12296). Peak area ratios (PAR) of metabolite and internal standard (stable-labelled metabolite) are then calculated. The measurement window for each experiment is then defined: • PAR (0% activity)= average PAR for all incubations containing concentrated inhibitor; • Par (100% activity)= average PAR for all incubations containing no inhibitor (DMSO controls); • % Activity (test inhibitor) • =[PAR(test inhibitor)-PAR(0% activity)]/[PAR(100% activity)-PAR(0% activity)]; • % Inhibition (test inhibitor)=100-% Activity (test inhibitor).

A further data set concerns the target T2, hTLR7 (Homo sapiens, UniProt Q9NYK1).
T2 sequence (Q9NYK1 27-1049): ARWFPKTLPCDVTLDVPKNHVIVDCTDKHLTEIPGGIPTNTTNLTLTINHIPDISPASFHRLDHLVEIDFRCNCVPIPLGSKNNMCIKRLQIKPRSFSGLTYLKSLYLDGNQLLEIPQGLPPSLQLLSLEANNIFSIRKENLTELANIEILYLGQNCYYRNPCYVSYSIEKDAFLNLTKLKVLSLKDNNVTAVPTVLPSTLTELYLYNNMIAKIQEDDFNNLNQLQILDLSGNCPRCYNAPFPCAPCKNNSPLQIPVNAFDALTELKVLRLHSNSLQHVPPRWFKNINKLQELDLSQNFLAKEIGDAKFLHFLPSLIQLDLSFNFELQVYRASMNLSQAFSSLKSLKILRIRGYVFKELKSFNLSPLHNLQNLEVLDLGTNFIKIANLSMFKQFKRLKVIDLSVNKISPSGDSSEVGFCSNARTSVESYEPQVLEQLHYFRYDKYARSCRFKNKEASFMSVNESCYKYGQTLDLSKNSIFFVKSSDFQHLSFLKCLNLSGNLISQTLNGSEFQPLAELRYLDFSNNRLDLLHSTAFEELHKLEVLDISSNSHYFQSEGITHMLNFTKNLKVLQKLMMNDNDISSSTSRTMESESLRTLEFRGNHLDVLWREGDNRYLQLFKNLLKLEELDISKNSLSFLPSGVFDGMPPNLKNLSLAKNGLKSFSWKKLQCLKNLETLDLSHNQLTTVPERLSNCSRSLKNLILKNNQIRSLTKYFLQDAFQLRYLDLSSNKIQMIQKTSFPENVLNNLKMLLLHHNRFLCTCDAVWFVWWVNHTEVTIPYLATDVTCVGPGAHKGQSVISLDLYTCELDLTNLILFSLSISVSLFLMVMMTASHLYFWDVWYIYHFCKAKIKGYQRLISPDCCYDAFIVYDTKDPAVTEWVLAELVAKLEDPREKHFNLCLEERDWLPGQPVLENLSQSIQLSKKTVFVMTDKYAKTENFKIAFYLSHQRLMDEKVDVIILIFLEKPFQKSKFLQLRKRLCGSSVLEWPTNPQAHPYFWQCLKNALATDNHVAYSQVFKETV
In words: HEK293-Blue-hTLR-7 cells assay (SEAP reporter, R848 stimulation). Type of data set: cell-based. Also on record: host or cells: HEK293 (HEK-Blue). To be noted: HEK293-Blue-hTLR7 cells, R848, 20 hrs; read-out: HEK/hTLR7 IC50. The source says:
A stable HEK293-Blue-hTLR-7 cell line was purchased from InvivoGen (Cat.#: hkb-htlr7, San Diego, California, USA). These cells were originally designed for studying the stimulation of human TLR7 by monitoring the activation of NF-κB. A SEAP (secreted embryonic alkaline phosphatase) reporter gene was placed under the control of the IFN-β minimal promoter fused to five NF-κB and AP-1-binding sites. The SEAP was induced by activating NF-xB and AP-1 via stimulating HEK-Blue hTT,R7 cells with TLR7 ligands. Therefore, the reporter expression was declined by TLR7 antagonist under the stimulation of a ligand, such as R848 (Resiquimod), for incubation of 20 hrs. The cell culture supernatant SEAP reporter activity was determined using QUANTI-Blue™ kit (Cat.#: rep-qb1, Invivogen, San Diego, Ca, USA) at a wavelength of 640 nm, a detection medium that turns purple or blue in the presence of alkaline phosphatase.
HEK293-Blue-hTLR7 cells were incubated at a density of 250,000-450,000 cells/mL in a volume of 170 µL in a 96-well plate in Dulbecco's Modified Eagle's medium (DMEM) containing 4.5 g/L glucose, 50 U/mL penicillin, […], […], 2 mM L-glutamine, 10% (v/v) heat-inactivated fetal bovine serum with addition of 20 µL test compound in a serial dilution in the presence of final DMSO at 1% and 10 µL of 20uM R848 in above DMEM, perform incubation under 37 °C in a CO2 incubator for 20 hrs. Then 20 µL of the supernatant from each well was incubated with 180 µL Quanti-blue substrate solution at 37 °C for 2 hrs and the absorbance was read at 620-655 nm using a spectrophotometer. The signaling pathway that TLR7 activation leads to downstream NF-xB activation has been widely accepted, and therefore similar reporter assay was modified for evaluating TLR7 antagonist.

In general, inhibition refers to the change of the read-out against control, counted positive when it falls.

T1 sequence (P10635 whole entry): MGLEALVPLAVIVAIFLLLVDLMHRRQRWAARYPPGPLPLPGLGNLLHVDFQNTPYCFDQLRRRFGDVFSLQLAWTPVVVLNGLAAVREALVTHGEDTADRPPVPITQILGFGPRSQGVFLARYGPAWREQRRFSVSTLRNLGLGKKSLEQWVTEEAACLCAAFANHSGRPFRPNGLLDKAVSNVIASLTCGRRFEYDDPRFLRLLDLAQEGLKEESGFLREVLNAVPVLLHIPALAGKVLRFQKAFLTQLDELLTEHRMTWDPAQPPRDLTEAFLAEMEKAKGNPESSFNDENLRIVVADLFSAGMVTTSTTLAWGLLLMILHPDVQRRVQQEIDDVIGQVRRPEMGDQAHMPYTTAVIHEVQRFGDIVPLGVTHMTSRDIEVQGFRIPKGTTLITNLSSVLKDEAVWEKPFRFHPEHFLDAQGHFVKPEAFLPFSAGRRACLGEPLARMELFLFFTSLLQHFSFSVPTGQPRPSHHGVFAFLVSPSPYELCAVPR

Regarding `C[C@@H]1CN(c2ccc(C#N)c3ncccc23)C[C@H](CN2CCN(c3ccc4c(c3)CNC4)CC2)O1` [Example 7, 5-[(2S,6R)-2-[(4-isoindolin-5-ylpiperazin-1-yl)methyl]-6-methyl-morpholin-4-yl] quinoline-8-carbonitrile], the inhibition at 10 min, 10 µM at CYP2D6 stood at 15%. Also, the IC50 on hTLR7 came out at 39 nM.
In the case of `C[C@@H]1CN(c2ccc(C#N)c3ncsc23)C[C@H](CN2CCN(c3cnc4c(c3)CNC4)CC2)O1` [Example 8, 7-[(2S,6R)-2-[[4-(6,7-dihydro-5H-pyrrolo[3,4-b]pyridin-3-yl)piperazin-1-yl]methyl]-6-methyl-morpholin-4-yl]-1,3-benzothiazole-4-carbonitrile], the inhibition at 10 min, 10 µM on CYP2D6 is 13%. Moreover, the IC50 at hTLR7 was determined as 10 nM.
The corresponding values for `C[C@@H]1CN(c2ccc(C#N)c3ncccc23)C[C@H](CN2CCN(c3ncc4c(n3)CNC4)CC2)O1` [Example 11, 5-[(2S,6R)-2-[[4-(6,7-dihydro-5Hpyrrolo[3,4-d]pyrimidin-2-yl)piperazin-1-yl]methyl]-6-methyl-morpholin-4-yl]quinoline-8-carbonitrile] are 19% and 11 nM.
As for `C[C@@H]1CN(c2ccc(C#N)c3ncccc23)C[C@H](CN2CCN(c3ccc4c(n3)CCNC4)CC2)O1` [Example 14, 5-[(2R,6S)-2-methyl-6-[[4-(5,6,7,8-tetrahydro-1,6-naphthyridin-2-yl)piperazin-1-yl]methyl]morpholin-4-yl]quinoline-8-carbonitrile], the inhibition at 10 min, 10 µM on CYP2D6 is -6%. Moreover, the IC50 at hTLR7 stood at 11 nM.
The matching figures for `C[C@@H]1CN(c2ccc(C#N)c3ncccc23)C[C@H](CN2CCN(c3ccc4c(c3)CN(CCO)C4)CC2)O1` [Example 16, 5-[(2S,6R)-2-[[4-[2-(2-hydroxyethyl)isoindolin-5-yl]piperazin-1-yl]methyl]-6-methyl-morpholin-4-yl]quinoline-8-carbonitrile]: 2.5% and 20 nM.
The matching figures for `C[C@@H]1CN(c2ccc(C#N)c3ncccc23)C[C@H](CN2CCN(c3cnc4c(n3)CCNC4)CC2)O1` [Example 17, 5-[(2R,6S)-2-methyl-6-[[4-(5,6,7,8-tetrahydropyrido[3,4-b]pyrazin-2-yl)piperazin-1-yl]methyl]morpholin-4-yl]quinoline-8-carbonitrile]: 4.5% and 11 nM.
The corresponding values for `C[C@@H]1CN(c2ccc(C#N)c3ncccc23)C[C@H](CN2CCN(c3cc4c(cn3)CNC4)CC2)O1` [Example 18, 5-[(2S,6R)-2-[[4-(2,3-dihydro-1H-pyrrolo[3,4-c]pyridin-6-yl)piperazin-1-yl]methyl]-6-methyl-morpholin-4-yl] quinoline-8-carbonitrile] are 13% and 9 nM.
Regarding `C[C@@H]1CN(c2ccc(C#N)c3ncccc23)C[C@H](CN2CCN(c3cc4c(cn3)CNCC4)CC2)O1` [Example 19, 5-[(2R,6S)-2-methyl-6-[[4-(5,6,7,8-tetrahydro-2,7-naphthyridin-3-yl)piperazin-1-yl]methyl]morpholin-4-yl]quinoline-8-carbonitrile], the inhibition at 10 min, 10 µM on CYP2D6 was 7.5%. Further, the IC50 on hTLR7 turned out to be 9 nM.
On to `C[C@@H]1CN(c2ccc(C#N)c3ncccc23)C[C@H](CN2CCN(c3cc4c(cn3)CCNC4)CC2)O1` [Example 20, 5-[(2R,6S)-2-methyl-6-[[4-(5,6,7,8-tetrahydro-2,6-naphthyridin-3-yl)piperazin-1-yl]methyl]morpholin-4-yl]quinoline-8-carbonitrile], for which the inhibition at 10 min, 10 µM on CYP2D6 is -5.5%. In addition, at hTLR7, the IC50 came to 8 nM.
As to `C[C@@H]1CN(c2ccc(C#N)c3ncccc23)C[C@H](CN2CCN(c3cnc4c(c3)CNCC4)CC2)O1` [Example 21, 5-[(2R,6S)-2-methyl-6-[[4-(5,6,7,8-tetrahydro-1,6-naphthyridin-3-yl)piperazin-1-yl]methyl]morpholin-4-yl]quinoline-8-carbonitrile], the inhibition at 10 min, 10 µM at CYP2D6 was -4.5%. The IC50 at hTLR7 turned out to be 11 nM.
The corresponding values for `C[C@@H]1CN(c2ccc(C#N)c3ncccc23)C[C@H](CN2CCN(c3ccc4c(c3)C(O)CNC4)CC2)O1` (stereo partly drawn) [Example 22, 5-[(2S,6R)-2-[[4-(4-hydroxy-1,2,3,4-tetrahydroisoquinolin-6-yl)piperazin-1-yl]methyl]-6-methyl-morpholin-4-yl]quinoline-8-carbonitrile] are 6% and 39 nM.
In the case of `C[C@@H]1CN(c2ccc(C#N)c3ncccc23)C[C@H](CN2CCN(c3cnc4c(c3)CCNC4)CC2)O1` [Example 23, 5-[(2R,6S)-2-methyl-6-[[4-(5,6,7,8-tetrahydro-1,7-naphthyridin-3-yl)piperazin-1-yl]methyl]morpholin-4-yl]quinoline-8-carbonitrile], the inhibition at 10 min, 10 µM on CYP2D6 worked out at 3.5%. For the same compound, the IC50 on hTLR7 was determined as 59 nM.
The corresponding values for `C[C@@H]1CN(c2ccc(C#N)c3ncccc23)C[C@H](CN2CCN(c3ccc4c(c3)CCNC4CO)CC2)O1` (stereo partly drawn) [Example 24, 5-[(2S,6R)-2-[[4-[1-(hydroxymethyl)-1,2,3,4-tetrahydroisoquinolin-6-yl]piperazin-1-yl]methyl]-6-methyl-morpholin-4-yl]quinoline-8-carbonitrile] are -9.5% and 32 nM.
The corresponding values for `C[C@@H]1CN(c2ccc(C#N)c3nccnc23)C[C@H](CN2CCN(c3cnc4c(c3)CNC4)CC2)O1` [Example 25, 8-[(2S,6R)-2-[[4-(6,7-dihydro-5H-pyrrolo[3,4-b]pyridin-3-yl)piperazin-1-yl]methyl]-6-methyl-morpholin-4-yl] quinoxaline-5-carbonitrile] are -8% and 19 nM.
